The target in one data set is T1, serum transferrin (Homo sapiens, UniProt P02787).
T1 construct: from tissue; host or cells: human blood serum
The data set is described as follows: Labelling of CP256 with ^68Ga in serum (PD10, ethanol precipitation, ITLC). The format is in vitro ADME. As for the experimental part:
Two different radiolabelling techniques were used. In method 1, 100 μl of chelator (CP-256, 2.35 mM, 1.17 mM, 589 μM, 117 μM, 23 μM and 11.7 μM; pH 7-7.5 in PBS/bicarbonate buffer) was mixed with 300 μl of human serum. After 10-15 minutes 20 μl of 68Ga eluate was added and the solution incubated at 37° C. in a plastic tube. In the second method, 20 μl of ^68Ga solution was added to the 300 μl of human blood serum. After 15-20 minutes 100 μl of chelator (Cp-256) was added. At each time point 50 μl of the incubation solution was applied to the top of the PD-10 column and eluted the column with PBS collecting 0.5 ml fractions. Fractions were counted in a gamma counter (Perkin Elmer wizard 31480 automatic gamma counter, 10 seconds per sample). The incubated solution were also analysed by ethanol precipitation, counting the pellet and supernatant after centrifugation to determine protein bound ^68Ga, and the centrifuged supernatants were analysed by ITLC-SG with 0.1 M sodium citrate as mobile phase. In these conditions “free” ^68Ga migrates with the solvent front (Rf=1) and ^68Ga-CP256 remains at the origin (Rf=0).

Another data set has as its target T2, human apo-transferrin (Homo sapiens, UniProt P02787).
T2 construct: purchased Sigma Aldrich T5391-10MG
The data set is described as follows: Tracer stability in apo-transferrin using 30 kDa MWCO filters. In kind it is in vitro ADME. Conditions: tracer radiolabelled at 100 μM ligand, 37° C. As for the experimental part: 50 mM TRIS-HCl buffer (pH 7.5) was prepared by dilution of a 1 M stock solution. Sodium bicarbonate was added to a concentration of 25 mM. A 2.5 mg/ml (32 μM) solution of apo-transferrin was prepared in this buffer. Solutions of all tracers were radiolabelled at a concentration of 100 μM. A 10 μM CP256 solution was also prepared. See table 9 for radiolabelling conditions. A 10 μl aliquot of each radiolabelled tracer was added to 30 μl of an appropriate buffer to neutralise the pH to between 7 and 7.5. This buffer was 2 M TRIS-HCl (pH 7.5) in the case of those tracers labelled in the acetate buffer. For preparations of ^67Ga-CP256 and ^67Ga-Citrate the buffer was PBS. Details can be seen in Table 9. Apo-transferrin solution (200 μl) in a plastic microcentrifuge tube was incubated at 37° C. in a metal heating block. To this was added 20 μl of each pH-neutralised tracer. 20 μl of each tracer was also incubated in a reference buffer (containing no apo-transferrin) of 50 mM TRIS-HCl containing 25 mM sodium bicarbonate. […] The filter section of the tube was removed and counted separately from the tube in a gamma counter. Percentage binding of the radioactivity to the MWCO filter was calculated using the following equation: Counts from filter section/Counts from filter section+counts from tube section×100 The analysis was done in triplicate after 4 hours for the apo-transferrin incubations. […]

Another data set deals with T3, sialoadhesin (Mus musculus, UniProt Q62230).
T3 construct: Sialoadhesin is found on the surface of macrophages; endogenous in cells; host or cells: macrophages (spleen, liver) of living wild-type C57Bl/6 mice
T3 sequence (Q62230 20-1695): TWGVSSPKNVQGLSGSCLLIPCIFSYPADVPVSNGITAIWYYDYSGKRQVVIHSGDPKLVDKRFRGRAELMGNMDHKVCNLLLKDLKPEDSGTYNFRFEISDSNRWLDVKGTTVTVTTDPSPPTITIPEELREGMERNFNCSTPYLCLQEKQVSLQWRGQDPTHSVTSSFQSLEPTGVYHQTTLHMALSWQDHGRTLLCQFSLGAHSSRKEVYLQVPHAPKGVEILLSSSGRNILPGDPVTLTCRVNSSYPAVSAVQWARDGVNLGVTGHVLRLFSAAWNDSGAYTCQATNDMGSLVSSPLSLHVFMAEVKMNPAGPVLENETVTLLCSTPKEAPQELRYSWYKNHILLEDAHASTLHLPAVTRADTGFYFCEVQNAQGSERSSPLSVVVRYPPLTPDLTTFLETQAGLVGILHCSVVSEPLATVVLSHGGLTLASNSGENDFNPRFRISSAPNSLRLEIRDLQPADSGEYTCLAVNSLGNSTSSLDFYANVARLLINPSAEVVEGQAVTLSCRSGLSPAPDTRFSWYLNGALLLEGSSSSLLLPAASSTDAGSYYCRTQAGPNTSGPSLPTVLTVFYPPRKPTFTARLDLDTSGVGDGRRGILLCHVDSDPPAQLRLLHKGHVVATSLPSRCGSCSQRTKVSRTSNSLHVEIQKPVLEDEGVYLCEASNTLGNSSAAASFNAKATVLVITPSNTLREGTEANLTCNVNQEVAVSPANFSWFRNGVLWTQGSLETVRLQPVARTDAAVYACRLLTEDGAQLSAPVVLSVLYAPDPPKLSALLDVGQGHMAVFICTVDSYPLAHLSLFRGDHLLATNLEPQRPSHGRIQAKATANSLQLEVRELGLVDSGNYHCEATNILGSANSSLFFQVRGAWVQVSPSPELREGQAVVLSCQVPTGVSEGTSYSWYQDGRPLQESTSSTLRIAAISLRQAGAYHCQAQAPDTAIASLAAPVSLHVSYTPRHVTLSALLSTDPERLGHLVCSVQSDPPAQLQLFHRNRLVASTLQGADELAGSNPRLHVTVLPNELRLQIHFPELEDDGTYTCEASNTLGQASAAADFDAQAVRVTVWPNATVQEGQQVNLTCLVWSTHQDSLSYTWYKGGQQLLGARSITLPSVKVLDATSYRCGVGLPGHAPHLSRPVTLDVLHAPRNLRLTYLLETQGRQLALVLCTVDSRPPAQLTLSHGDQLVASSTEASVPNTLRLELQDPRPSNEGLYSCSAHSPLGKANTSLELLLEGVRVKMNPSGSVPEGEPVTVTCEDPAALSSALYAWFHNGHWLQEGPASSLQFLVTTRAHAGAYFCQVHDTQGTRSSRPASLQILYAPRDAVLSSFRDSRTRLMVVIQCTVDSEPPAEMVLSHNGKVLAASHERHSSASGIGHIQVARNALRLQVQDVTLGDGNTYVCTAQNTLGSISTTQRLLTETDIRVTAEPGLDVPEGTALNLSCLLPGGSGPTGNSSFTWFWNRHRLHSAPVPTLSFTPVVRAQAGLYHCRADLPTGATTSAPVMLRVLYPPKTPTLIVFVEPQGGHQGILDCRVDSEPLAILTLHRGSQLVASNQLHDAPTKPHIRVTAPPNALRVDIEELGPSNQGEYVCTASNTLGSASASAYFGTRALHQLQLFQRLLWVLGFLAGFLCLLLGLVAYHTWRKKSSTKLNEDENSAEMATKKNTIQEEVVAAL
In kind it is in vivo. The settings on record: group 2: ^67Ga citrate 5 min after unconjugated SER4; wild type mice, 3 h. As for the experimental part: CP256-SER4 was labelled with ^67Ga to give ^67Ga-CP256-SER4. Groups of wild type mice were injected with either directly labelled Ga-CP256-SER4 (group 1), or SER4 (unconjugated) followed 5 min later by ^67Ga citrate (group 2) or CP256-SER4 followed by ^67Ga citrate.
The same experiments were also performed using sialoadhesin knockout mice. All animals were killed after 3 h and biodistribution of radioactivity determined.
^67Gallium radiolabelling was performed by addition of 45 μL ^67Ga citrate (0.6-0.75 MBq) to 90 μL (90 μg) CP256-SER4. Radiolabelling was allowed to proceed for 10 min before dilution to 350 μL with phosphate buffered saline. Injections containing 25 μg of labelled antibody were drawn up. Analysis of the radiolabelled antibody was performed by size exclusion HPLC using 0.1 M phosphate buffer containing 2 mM EDTA as the mobile phase to ensure good radiolabelling had been achieved prior to injection into animals.
Groups of wild type mice (C57Bl/6, male 8-10 weeks, n=2 to 3 per group) were injected with either directly labelled ^67Ga-CP256-SER4 (group 1), or SER4 (unconjugated) followed 5 min later by ^67Ga citrate (group 2) or CP256-SER4 followed by ^67Ga citrate. […] All animals were killed after 3 h and biodistribution of radioactivity determined by explanting tissues and weighing and counting.

This note sets out measurements from patent publication US9138495B2, “Conjugates and their uses in molecular imaging” (King's College London, priority 2010, dated 2015).

T1 sequence (P02787 20-698): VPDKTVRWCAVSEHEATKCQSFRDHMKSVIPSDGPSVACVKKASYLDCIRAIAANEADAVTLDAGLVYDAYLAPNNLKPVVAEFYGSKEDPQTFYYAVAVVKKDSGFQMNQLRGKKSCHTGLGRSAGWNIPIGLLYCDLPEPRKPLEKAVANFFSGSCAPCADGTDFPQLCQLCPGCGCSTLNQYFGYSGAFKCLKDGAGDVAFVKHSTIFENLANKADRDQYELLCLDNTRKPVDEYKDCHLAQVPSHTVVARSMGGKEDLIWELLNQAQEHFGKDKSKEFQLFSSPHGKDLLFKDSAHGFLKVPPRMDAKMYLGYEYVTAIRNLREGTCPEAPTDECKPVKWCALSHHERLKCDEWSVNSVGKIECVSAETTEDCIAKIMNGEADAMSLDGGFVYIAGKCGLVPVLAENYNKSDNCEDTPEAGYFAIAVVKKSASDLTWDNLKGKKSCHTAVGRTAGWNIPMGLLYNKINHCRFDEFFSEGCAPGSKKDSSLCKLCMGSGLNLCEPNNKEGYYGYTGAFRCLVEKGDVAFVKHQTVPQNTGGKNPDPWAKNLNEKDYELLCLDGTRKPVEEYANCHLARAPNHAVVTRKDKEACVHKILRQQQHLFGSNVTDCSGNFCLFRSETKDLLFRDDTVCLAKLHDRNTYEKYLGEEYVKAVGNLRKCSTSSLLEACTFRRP
T2 sequence (P02787 20-698): as above

On to `CC(=O)NC(CCC(=O)NCc1c(O)c(=O)cc(C)n1C)(CCC(=O)NCc1c(O)c(=O)cc(C)n1C)CCC(=O)NCc1c(O)c(=O)cc(C)n1C.Cl.Cl.Cl` [CP256, 4-Acetylamino-4-{2-[(3-hydroxy-1,6-dimethyl-4-oxo-1,4-dihydro-pyridin-2-ylmethyl)-carbamoyl]-ethyl}-heptanedioic acid bis-[(3-hydroxy-1,6-dimethyl-4-oxo-1,4-dihydro-pyridin-2-ylmethyl)-amide]tris hydrochloride salt], for which the “CP256 sample concentration giving a chromatogram similar to that of ^68Ga-CP256 in serum” value on serum transferrin (^68Ga chloride added to mixture of CP256 and human serum) was ≥ 23 µM. At serum transferrin (^68Ga chloride added to mixture of CP256 and human serum, 37° C.), the “chelation of ^68Ga in competition with serum transferrin” value is recorded as “competes effectively with serum transferrin”. Also, on serum transferrin (^68Ga equilibrated first with serum, then CP256 added), the “extraction of ^68Ga from ^68Ga-transferrin complex” value is “able to extract ^68Ga from ^68Ga-transferrin complex”. Besides, on serum transferrin (serum containing CP256), the “free ^68Ga (ITLC of supernatants)” value is on record as “no detectable free ^68Ga” and the “protein bound ^68Ga (ethanol precipitation)” value is given as “no measurable protein binding”.
`O=C([O-])CC(O)(CC(=O)[O-])C(=O)[O-].[67Ga+3]` [^67Ga-CITRATE]: the “% radioactivity bound to MWCO filter, in reference buffer” value on human apo-transferrin (50 mM TRIS-HCl, 25 mM bicarbonate, no apo-transferrin) was 1.7 ± 0.5%. Moreover, on human apo-transferrin (apo-transferrin, 4 hours), the “% radioactivity bound to MWCO filter, apo-transferrin incubation, after 4 hours” value is reported as 73.0 ± 4.1%. For the same compound, the “activity in circulating blood” value at sialoadhesin is listed as 7 % ID/g.
